Experimental data published in patent US20210330616A1, “AMELIORATING AGENT FOR OBESITY-RELATED METABOLIC DISEASE” (METABOLIC AND OBESE RESEARCH SCIENCE CORPORATION, priority 2018, published 2021).
pKd, pKi: −log10 of the molar value. Several values for one entry are separate records, joined by “and”; a condition that tells them apart may be missing. Identical values can stand only once. Counter-ions that a name gives are not always drawn. Like-named read-outs stand apart in the source and are kept apart here.

What was measured:
[1] = set-up: key to Body weight / Insulin resistance / Hyperglycemia / Hypertension / Blood LDLc / Blood HDLc / Fatty liver: ↓: lowering or mitigating action; ↑: increasing action; →: no change; settings: cited from earlier work
Helz2 = biological target: T1, Helz2 (Homo sapiens, UniProt Q9BYK8); assay: High-throughput screening through surface plasmon resonance for low-molecular-weight compounds that bind to Helz2; format: binding; settings: purified Helz2 protein
T1 construct: 3xFLAG (N); made in house; host or cells: HEK293 cells
T1 sequence (Q9BYK8 whole entry): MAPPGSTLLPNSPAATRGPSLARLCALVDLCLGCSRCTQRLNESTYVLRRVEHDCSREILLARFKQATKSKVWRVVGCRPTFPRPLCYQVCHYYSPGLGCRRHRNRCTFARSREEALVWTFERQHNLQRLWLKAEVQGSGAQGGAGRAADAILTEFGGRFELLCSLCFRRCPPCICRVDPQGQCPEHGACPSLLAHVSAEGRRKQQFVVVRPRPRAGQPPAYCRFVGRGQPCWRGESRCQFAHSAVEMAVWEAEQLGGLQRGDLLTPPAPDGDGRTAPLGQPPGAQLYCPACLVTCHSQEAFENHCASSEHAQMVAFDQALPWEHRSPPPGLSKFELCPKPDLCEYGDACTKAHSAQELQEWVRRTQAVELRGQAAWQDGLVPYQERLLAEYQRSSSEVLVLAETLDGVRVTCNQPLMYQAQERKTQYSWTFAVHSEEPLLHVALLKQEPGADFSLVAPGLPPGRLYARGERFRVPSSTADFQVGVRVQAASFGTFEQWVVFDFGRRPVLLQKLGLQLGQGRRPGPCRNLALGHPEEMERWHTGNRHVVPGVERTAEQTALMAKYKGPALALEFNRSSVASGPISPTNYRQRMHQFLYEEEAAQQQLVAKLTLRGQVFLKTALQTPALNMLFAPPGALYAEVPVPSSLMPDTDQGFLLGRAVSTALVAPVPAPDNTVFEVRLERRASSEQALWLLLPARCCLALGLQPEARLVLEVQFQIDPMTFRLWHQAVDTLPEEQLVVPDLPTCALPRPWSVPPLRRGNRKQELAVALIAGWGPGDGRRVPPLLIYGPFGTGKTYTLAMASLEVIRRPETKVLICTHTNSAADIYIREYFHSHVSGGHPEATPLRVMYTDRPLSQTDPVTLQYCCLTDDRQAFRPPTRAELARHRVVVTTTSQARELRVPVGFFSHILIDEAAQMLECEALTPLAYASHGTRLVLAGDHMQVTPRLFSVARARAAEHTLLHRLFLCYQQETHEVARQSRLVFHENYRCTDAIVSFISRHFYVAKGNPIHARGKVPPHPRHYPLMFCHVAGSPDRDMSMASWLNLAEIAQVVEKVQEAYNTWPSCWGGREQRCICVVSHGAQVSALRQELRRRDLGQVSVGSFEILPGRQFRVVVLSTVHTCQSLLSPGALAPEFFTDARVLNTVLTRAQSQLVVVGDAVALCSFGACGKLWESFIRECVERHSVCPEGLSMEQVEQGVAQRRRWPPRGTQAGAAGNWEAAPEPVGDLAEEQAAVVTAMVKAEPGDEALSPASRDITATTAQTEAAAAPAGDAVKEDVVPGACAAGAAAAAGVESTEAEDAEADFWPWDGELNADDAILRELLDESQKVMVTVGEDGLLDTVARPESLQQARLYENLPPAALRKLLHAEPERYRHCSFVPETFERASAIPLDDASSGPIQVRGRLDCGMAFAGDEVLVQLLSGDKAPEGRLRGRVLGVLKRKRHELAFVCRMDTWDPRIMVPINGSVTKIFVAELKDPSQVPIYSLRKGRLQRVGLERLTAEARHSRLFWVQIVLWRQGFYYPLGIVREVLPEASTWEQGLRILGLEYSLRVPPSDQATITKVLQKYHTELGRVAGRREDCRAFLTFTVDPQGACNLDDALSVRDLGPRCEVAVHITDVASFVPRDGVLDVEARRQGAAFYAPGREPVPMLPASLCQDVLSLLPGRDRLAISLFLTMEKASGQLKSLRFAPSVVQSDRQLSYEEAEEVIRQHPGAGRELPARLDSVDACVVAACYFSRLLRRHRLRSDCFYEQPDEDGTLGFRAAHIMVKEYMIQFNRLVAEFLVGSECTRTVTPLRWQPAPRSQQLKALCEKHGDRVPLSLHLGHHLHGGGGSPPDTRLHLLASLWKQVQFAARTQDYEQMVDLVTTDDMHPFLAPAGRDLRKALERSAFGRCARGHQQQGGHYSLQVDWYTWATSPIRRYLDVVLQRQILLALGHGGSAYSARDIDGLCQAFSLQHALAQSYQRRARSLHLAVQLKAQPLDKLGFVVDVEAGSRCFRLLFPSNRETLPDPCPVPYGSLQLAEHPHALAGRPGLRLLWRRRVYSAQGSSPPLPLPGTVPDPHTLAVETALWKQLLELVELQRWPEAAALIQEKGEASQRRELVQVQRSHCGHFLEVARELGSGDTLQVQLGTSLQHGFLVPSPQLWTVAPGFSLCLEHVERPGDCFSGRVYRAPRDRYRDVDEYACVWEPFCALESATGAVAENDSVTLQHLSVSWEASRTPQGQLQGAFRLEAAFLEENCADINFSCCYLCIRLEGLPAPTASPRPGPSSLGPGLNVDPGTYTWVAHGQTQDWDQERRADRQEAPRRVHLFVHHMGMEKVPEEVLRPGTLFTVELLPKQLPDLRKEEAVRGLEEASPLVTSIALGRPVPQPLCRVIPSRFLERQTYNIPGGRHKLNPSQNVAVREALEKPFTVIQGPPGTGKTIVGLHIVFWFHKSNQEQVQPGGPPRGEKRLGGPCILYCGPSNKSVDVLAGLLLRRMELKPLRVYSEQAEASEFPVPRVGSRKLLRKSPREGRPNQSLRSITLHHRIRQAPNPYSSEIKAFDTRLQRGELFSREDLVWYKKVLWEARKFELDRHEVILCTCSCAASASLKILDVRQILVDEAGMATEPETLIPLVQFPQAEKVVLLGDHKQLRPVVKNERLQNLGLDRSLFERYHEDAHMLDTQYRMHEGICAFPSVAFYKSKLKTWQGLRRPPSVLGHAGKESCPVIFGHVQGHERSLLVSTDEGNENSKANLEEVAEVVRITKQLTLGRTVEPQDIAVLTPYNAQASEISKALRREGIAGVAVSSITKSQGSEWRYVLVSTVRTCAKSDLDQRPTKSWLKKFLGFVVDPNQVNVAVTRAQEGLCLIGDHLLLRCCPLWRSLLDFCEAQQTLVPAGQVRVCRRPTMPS
Source text: 1. High-Throughput Screening for Low-Molecular-Weight Compounds that Bind to Helz2
HEK293 cells were allowed to express Helz2 by using a Helz2 expression vector (p3×FLAG-CMV10-pDIP2), and Helz2 protein was purified.

[2] = tested on: Leprb gene expression in HepG2 cells; assay: Leprb gene expression in cultured hepatocyte HepG2 (qRT-PCR); format: cell-based; settings: HepG2, 10^−9 to 10^−7M, 24 to 48 hours
Procedure: Identification of Low-Molecular-Weight Compound that Promotes Leprb Expression in Cultured Hepatocytes
Because Leprb gene expression is promoted on lowering of the action of Helz2 through binding of a low-molecular-weight compound, the low-molecular-weight compounds that bound to Helz2 were screened with use of increase of Leprb gene expression in cultured hepatocyte as an index. […] The hepatocytes were cultured at 37° C. for 24 to 48 hours, and Leprb gene expression therein was measured through a quantitative real time polymerase chain reaction (qRT-PCR, TaqMan Gene expression assays using LEPRB probes) method.

Hepatic Leprb expression = Hepatic Leprb expression with oral administration to obese mice; format: in vivo, mice (C57BL6J); settings: 0.32 mg/kg/day oral, 14 days, vs physiological saline
Procedure: 3. Hepatic Leprb Expression with Oral Administration of Low-Molecular-Weight Compound
(§1) Six-week-old male mice (C57BL6J) were grown with high-fat diet (fat content: 60 kcal %, Research diets, Inc.) or low-fat diet (fat content: 10.5 kcal %, CLEA Japan, Inc.) for 18 weeks. Thereafter, obese mice fed high-fat diet were separated into two groups, and 0.3 mL of physiological saline was orally administered to one group through a gastric tube for mouse, and 0.3 mL of a solution of a low-molecular-weight compound dissolved in physiological saline was orally administered to the other group through the gastric tube for mouse. Oral administration was performed every day over 14 days during 30 minutes before turning lights off at 18:00 (turning lights on at 6:00, 12-hour light-dark cycle, room temperature: 22° C.). […] Thereafter, the organs were stored at −80° C. Hepatic Leprb expression was measured by means of the qRT-PCR.

[3] = tested on: obese mice fed high-fat diet; assay: Daily variation of body weight with oral administration to obese mice; format: in vivo, mice (C57BL6J); set-up: key to Body weight: ↓: lowering or mitigating action; ↑: increasing action; →: no change
Procedure: as §1
4. Daily Variation of Body Weight with Oral Administration of Low-Molecular-Weight Compound
The body weight of each mouse with administration of physiological saline or administration of a low-molecular-weight compound was measured every day before each administration at 18:00.

[4] = tested on: obese mice fed high-fat diet; assay: Blood leptin concentration and food intake after oral administration to obese mice; format: in vivo, mice (C57BL6J)
Procedure: as §1
5. Change in Blood Leptin Concentration and Food Intake after Oral Administration of Low-Molecular-Weight Compound
Blood leptin concentration after administration of physiological saline or administration of a low-molecular-weight compound were measured by using a mouse leptin ELISA kit (Morinaga Institute of Biological Science, Inc.). The daily food intake of each mouse was measured every day before each administration at 18:00.

[5] = tested on: obese mice fed high-fat diet; assay: Insulin resistance and blood glucose level after oral administration to obese mice; format: in vivo, mice (C57BL6J); set-up: key to Insulin resistance / Hyperglycemia: ↓: lowering or mitigating action; ↑: increasing action; →: no change
Procedure: as §1
6. Change in Insulin Resistance and Blood Glucose Level after Oral Administration of Low-Molecular-Weight Compound
Fasting blood glucose and blood insulin concentration after administration of physiological saline or administration of a low-molecular-weight compound were measured respectively by using an enzyme-electrode method with glucose oxidase and a mouse insulin ELISA kit (Morinaga Institute of Biological Science, Inc.). The insulin resistance of each mouse was represented as Homeostatic model assessment of insulin resistance (HOMA-IR) [insulin (mU/L)×blood glucose (mM)÷22.5] index (×100) (Brit J Nutr 101: 701-708, 2009).

[6] = tested on: obese mice fed high-fat diet; assay: Pancreatic weight and pancreatic β-cell function after oral administration to obese mice; format: in vivo, mice (C57BL6J); settings: 14-day oral administration, vs physiological saline
Procedure: as §1
7. Change in Pancreatic Weight and Pancreatic β-Cell Function after Oral Administration of Low-Molecular-Weight Compound
Pancreatic weight after administration of physiological saline or administration of a low-molecular-weight compound was measured. The pancreatic β-cell function of each mouse was represented by Homeostatic model assessment-β cell function (HOMA-β) {[insulin (mU/L)×20]÷[blood glucose (mM)−3.5]} index (×100) (Brit J Nutr 101:701-708, 2009).

[7] = tested on: obese mice fed high-fat diet; assay: Hepatic lipid content after oral administration to obese mice (LipoSEARCH, BODIPY staining); format: in vivo, mice (C57BL6J); set-up: key to Fatty liver: ↓: lowering or mitigating action; ↑: increasing action; →: no change
Procedure: as §1
8. Change in Hepatic Lipid Content after Oral Administration of Low-Molecular-Weight Compound
Hepatic Tg and Chol contents after administration of physiological saline or administration of a low-molecular-weight compound were measured by using a LipoSEARCH method (Skylight Biotech, Inc.).
To visualize and quantify the amount of fat accumulated in hepatocyte per cell and change in shape of fat, fat globule fluorescent staining with BODIPY (excitation light: 493 nm; fluorescence: 503 nm) was performed. Staining-positive area and size of staining-positive cell were measured in 10 views per mouse hepatocyte in each group. ANOVA was used for intergroup significance test in FIGS. 8-D and 8-E (****. P<0.001).

[8] = tested on: obese mice fed high-fat diet; assay: Weights of liver and heart after oral administration to obese mice; format: in vivo, mice (C57BL6J); settings: 14-day oral administration, vs physiological saline
Procedure: as §1
9. Change in Weights of Liver and Heart after Oral Administration of Low-Molecular-Weight Compound
The weights of the liver and heart after administration of physiological saline or administration of a low-molecular-weight compound were measured.

[9] = tested on: obese mice fed high-fat diet; assay: Blood lipid concentration after oral administration to obese mice; format: in vivo, mice (C57BL6J); set-up: key to Blood LDLc / Blood HDLc: ↓: lowering or mitigating action; ↑: increasing action; →: no change
Procedure: as §1
10. Change in Blood Lipid Concentration after Oral Administration of Low-Molecular-Weight Compound
Fasting blood CM-Tg, VLDL-Tg, LDLc, and HDLc concentrations after administration of physiological saline or administration of a low-molecular-weight compound were measured by using the LipoSEARCH method.

[10] = tested on: obese mice fed high-fat diet; assay: Weights of spleen and kidney after oral administration to obese mice; format: in vivo, mice (C57BL6J); settings: 14-day oral administration, vs physiological saline
Procedure: as §1
11. Change in Weights of Spleen and Kidney after Oral Administration of Low-Molecular-Weight Compound
The weights of the spleen and kidney after administration of physiological saline or administration of a low-molecular-weight compound were measured.

[11] = tested on: obese mice fed high-fat diet; assay: Weights of fat and muscle after oral administration to obese mice; format: in vivo, mice (C57BL6J); settings: 14-day oral administration
Procedure: as §1
12. Change in Weights of Fat and Muscle after Oral Administration of Low-Molecular-Weight Compound
The amounts of visceral fat, which evokes metabolic disorder, and muscle (right side) after administration of physiological saline or administration of a low-molecular-weight compound were measured.

α2-adrenaline receptor = settings: cited from earlier work
[12] = in vivo; cited from earlier work
[13] = surface plasmon resonance, read-out: KD value for binding to and dissociating from Helz2
[14] = obese mice, 14-day oral administration, vs physiological saline
[15] = obese mice, 14-day oral administration, fasting, vs physiological saline
[16] = obese mice, fatty liver caused by high-fat diet
[17] = Table 1, summary of obese mouse results
[18] = KD value for binding to and dissociating from Helz2, surface plasmon resonance

CN(C)C(=N)N=C(N)N [Metformin]
Blood HDLc ([1]; Table 1, comparator drugs): →
Blood LDLc ([1]; Table 1, comparator drugs): →
Body weight ([1]; Table 1, comparator drugs): →
Fatty liver ([1]; Table 1, comparator drugs): →
Hyperglycemia ([1]; Table 1, comparator drugs): ↓
Hypertension ([1]; Table 1, comparator drugs): →
Insulin resistance ([1]; Table 1, comparator drugs): ↓
action on insulin resistance ([1]; comparison, comparator drugs): ameliorate insulin resistance
anti-fatty liver action ([1]; comparison, comparator drugs): does not exhibit anti-fatty liver action
anti-obesity action ([1]; comparison, comparator drugs): does not exhibit anti-obesity action
hyperglycemia-mitigating action ([1]; comparison, comparator drugs): exhibits hyperglycemia-mitigating action

NCCCNCCSP(=O)(O)O [amifostine trihydrate]
pKd (Helz2; [13]): 6.31 to 9.00

CN(C)CCC(c1ccc(Br)cc1)c1ccccn1 (centres unmarked) [brompheniramine maleate]
pKd (Helz2; [13]): 6.31 to 9.00

Clc1cccc(Cl)c1N=C1NCCN1 [clonidine hydrochloride]
pKd (Helz2; [13]): ≤ 6.00

COC(=O)Nc1nc2ccc(Sc3ccccc3)cc2[nH]1 [fenbendazole]
pKd (Helz2; [13]): 6.31 to 9.00

N=C(N)N/N=C/c1c(Cl)cccc1Cl [guanabenz acetate]
pKd (Helz2; [13]): 6.31 to 9.00 and 8.64
Leprb expression in cultured hepatocyte (index of lowering of Helz2 action) [2]: Concentration-dependent increase in Leprb expression
Hepatic Leprb gene expression (Hepatic Leprb expression): significantly increased
body weight gain ([3]; obese mice, 0.32 mg/kg/day oral, after day 4 from the beginning of administration, vs physiological saline): significantly reduced
Body weight ([3]; obese mice, 0.32 mg/kg/day oral, on day 8 from the beginning of administration, maintained during administration): significant body weight reduction
blood leptin concentration relative to non-obese mice ([4]; obese mice after administration, vs non-obese mice (2.3±0.5 ng/mL)): ≥ 10 fold
blood leptin concentration [4, 14]: rather slightly decreased
total food intake accumulation [4, 14]: no significant change
daily food intake ([4]; obese mice, except on day 3 from the beginning of administration, vs physiological saline): no change in daily food intake
blood glucose levels [5, 15]: lowered the level of hyperglycemia to that in non-obese mice
blood insulin levels [5, 15]: mitigated hyperinsulinemia
HOMA-IR index (insulin resistance index) [5, 14]: suppressed the HOMA-IR index
HOMA-β index (pancreatic β-cell function) [6]: not changed
pancreatic weight [6]: not changed
hepatic Chol content [7, 14]: significantly reduced
hepatic Tg content [7, 14]: significantly reduced
fat globule area (BODIPY staining-positive area in hepatocyte) [7, 16]: significantly decreased
fat globule cell size (size of BODIPY staining-positive cell) [7, 16]: significantly decreased
weight of heart [8]: significantly decreased
weight of liver [8]: significantly decreased
blood CM-Tg concentration [9, 15]: not changed
blood HDLc concentration [9, 15]: not changed
blood LDLc concentration [9, 15]: significantly decreased
blood VLDL-Tg concentration [9, 15]: not changed
weight of kidney [10]: No change
weight of spleen [10]: No change
muscle weight of gastrocnemius muscle [11]: not affected
muscle weight of plantaris muscle [11]: not affected
muscle weight of soleus muscle [11]: not affected
amount of intestinal membrane fat ([11]; vs physiological saline): not changed
amount of peritesticular fat ([11]; vs physiological saline): not changed
amount of total visceral fat ([11]; vs physiological saline): not changed

NC(N)=N/N=C/c1c(Cl)cccc1Cl [guanabenz, 2-{[(2,6-dichlorophenyl)methylidene]amino}guanidine]
Body weight [3, 17]: ↓
anti-obesity action ([3]; obese mouse results): exhibits anti-obesity action without reduction of appetite
Hyperglycemia [5, 17]: ↓
Insulin resistance [5, 17]: ↓
action on insulin resistance ([5]; obese mouse results): ameliorates insulin resistance
hyperglycemia-mitigating action ([5]; obese mouse results): exhibits hyperglycemia-mitigating action
Fatty liver [7, 17]: ↓
anti-fatty liver action ([7]; obese mouse results): with anti-fatty liver action
Blood HDLc [9, 17]: →
Blood LDLc [9, 17]: ↓
action on high LDL cholesterol ([9]; obese mouse results): exhibits reducing action for high LDL cholesterol
pKi (α2-adrenaline receptor): 8.15
absorptivity from a gastrointestinal tract [12]: approximately 75%
half-life in blood [12]: 4.3 to 6.4 h
site of metabolism [12]: mostly metabolized in the liver
Hypertension ([1]; Table 1, *based on clinical data): ↓*

CN(C)C(=O)C(CCN1CCC(O)(c2ccc(Cl)cc2)CC1)(c1ccccc1)c1ccccc1 [loperamide hydrochloride]
pKd (Helz2; [18]): 6.31 to 9.00

Cc1nc2ccccn2c(=O)c1CCN1CCC(C(=O)c2ccc(F)cc2)CC1 [pirenperone]
pKd (Helz2; [13]): 6.31 to 9.00

CC(NCCc1ccc(O)cc1)C(O)c1ccc(O)cc1 (centres unmarked) [ritodrine hydrochloride]
pKd (Helz2; [13]): 6.31 to 9.00

CCN(C)C(=O)Oc1cccc([C@H](C)N(C)C)c1 [rivastigmine tartrate]
pKd (Helz2; [18]): 6.31 to 9.00

CC(C)(C)NCC(O)c1ccc(O)c(CO)c1 (centres unmarked) [salbutamol]
pKd (Helz2; [13]): 6.31 to 9.00 and 6.66

CC(C)CC(N(C)C)C1(c2ccc(Cl)cc2)CCC1 (centres unmarked) [sibutramine hydrochloride]
pKd (Helz2; [18]): 6.31 to 9.00

CC1(C)[C@H](C(=O)O)N2C(=O)C[C@H]2S1(=O)=O [sulbactam]
pKd (Helz2; [13]): 6.31 to 9.00

C[C@@H](c1ncncc1F)[C@](O)(Cn1cncn1)c1ccc(F)cc1F [voriconazole]
pKd (Helz2; [13]): 6.31 to 9.00
